The test system of series [1] is AMO1 HMCL. Briefly: Cell cycle analysis by flow cytometry. The note with it: AMO1, single agent. It is filed as cell-based, human. The text has this: FIG. 15 represents graphs showing the effects of the treatments with inhibitors on cell cycle in AMO1 cells. p-value: *<0.05; **<0.01; ***<0.001.
FIG. 29 represents graphs illustrating that Co-treatments differentially affect cell cycle in AMO1 cell line. Cotreatment with Melphalan or Lenalidomide and A) AZD7762; B) OTSSP167; C) Centrinone B; D) XL413. Cell cycle was monitored by flow cytometry after 4 days co-treatments. p-value: *<0.05; **<0.01; ***<0.001.
(§1) Cells were culture in 12 wells plate for 4 days. Apoptotic cells were detected using phycoerythrin-conjugated Annexin V (PE-annexin V, BD Pharmingen). For the cell cycle and DNA damage, we used the Apoptosis, DNA damage and cell proliferation kit (BD), following the manufacturer's protocol.
Background: In flow cytometry, cells or beads pass a laser one at a time.

Series [2] has as its system primary Mouse myeloma (5T33vv) and mouse myeloma cell line (5T33vt). Briefly: Mouse myeloma cell viability (CTG). The series is classed as cell-based. As to conditions: 5T33vv and 5T33vt, CTG after 24, 48 or 96 hours. The protocol:
FIG. 18 represents graphs cell viability of primary Mouse myeloma (5T33vv) and mouse myeloma cell line (5T33vt), monitored by CTG after 24, 48 or 96 hours treatment with indicated inhibitors.

The test system of series [3] is normal BM microenvironment cells from patients. Briefly: Toxicity on non-tumoral bone marrow cells in primary patient cultures. It is filed as cell-based, human. As to conditions: N=5 patients, 4 days. The text has this:
CD138 amount was monitored by flow cytometry after 4 days of treatment.

In series [4] the test system is AMO1. Briefly: Cell Titer Glo viability, AMO1 HMCL. The series is classed as cell-based, human. As to conditions: Homo sapiens; AMO1, CTG viability. The method, then: (§2) AMO-1 and OPM2 HMCLs were purchased from DSMZ (Braunschweig, Germany), XG1 and XG21 were obtained as described (Moreaux et al., 2011). HMCLs were cultured in RPMI 1640 medium, 10% FCS (control medium). For XG-IL-6 dependent HMCLs 2 ng/ml IL-6 was added. Cells were cultured in 96-well flat-bottom microtiter plates in the presence of a concentration range of selected compounds: AZD7762 and OTSSP167 (Selleck, euromedex), HITOPK032, XL413, SRPIN340 (Sigma), AZ3146, Centrinone B (Tocris). Cell Titer Glo Luminescent Assay (Promega, Madison, Wis., USA) was used to assess cell viability, and the 50% inhibition (IC50) was determined using GraphPad Prism software (http://www.graphpad.com/scientific-software/prism/).
(§3) Statistical comparisons were done with unpaired or paired Student's t-tests. The effect of drug combination was evaluated using the methods developed by Chou and Talalay (Chou and Talalay, 1984) by calculating the combination Index (CI), with CI<1, CI=1, and CI>1 respectively indicating synergism, additive effects, and antagonism. Here we used CI=0.90-1.10 to indicated additivity.
(In general: Cellular ATP, detected with luciferase, serves as a proxy for viable cell number.)

For series [5], the system named is HMCLs (AMO1, OPM2, XG1, XG21). The experiment in a line: HMCL viability, single and co-treatment with conventional MM drugs (CTG). The note with it: inhibitor at IC20. It is filed as cell-based, human. The method, then: as §2, §3
Keeping in mind the main objective of identifying alternative and efficient complementary treatment for MM patients, the inventors next performed co-treatment on HMCLs with commonly used therapeutic drugs in MM (e.g. Melphalan, Lenalidomide, Velcade) and the different kinases inhibitors. In order to fit to the goal of a combination treatment the inventors used an arbitrary […] for all the kinases inhibitors, which the inventors associated with various concentration of the standard therapeutic.

The subject of series [6] is OPM2. The experiment in a line: Cell Titer Glo viability, OPM2 HMCL. It is filed as cell-based, human. The note with it: Homo sapiens, OPM-2; OPM2, CTG viability. The method, then:
as §2, §3

Series [7] has as its system AMO1 HMCL. Briefly: Apoptosis (annexin V, PARP cleavage) by flow cytometry. The series is classed as cell-based, human. As to conditions: AMO1; sub-lethal Melphalan or Lenalidomide + inhibitor at IC20, 4 days.
Excerpt: FIG. 14 represents graphs showing that inhibitors increase apoptosis (annexin and PARP) in AMO1 cell line; Annexin and PARP were monitored by flow cytometry after 4 days treatments. p-value: *<0.05; **<0.01; ***<0.001.
FIG. 25 represents graphs illustrating that the co-treatments induce cell death and differentially affect DNA damages in AMO1 HMCL. Co-treatment with selected kinase inhibitors at IC20 and Melphalan or Lenalidomide.
as §1

In series [8] the test system is XG7 WT and XG7 Mres. The experiment in a line: Viability of melphalan sensitive and resistant cell lines (CTG). The series is classed as cell-based, human. The note with it: inhibitor at IC20. The protocol: FIG. 32 represents a graph of the calculated IC50 for the co-treatment with melphalan and selected kinase inhibitors at IC20. Melphalan sensitive (XG7 WT) and Resistant (XG7 MRes) cell lines were treated for 4 days with the selected kinases inhibitors. Cell viability was monitored by the CTG. p-value: *<0.05; **<0.01; ***<0.001.
The facts that: 1) all drugs tested are actively decreasing HMCLs viability and induce apoptosis; 2) co-treatment with melphalan leads to synergy or potentialized the decrease of cell viability; 3) some of the selected kinases inhibitors can reverse the resistance to lenalidomide in AMO1 HMCL, led us to question the capability of these drugs to reverse or reduce also melphalan resistance. In that purpose, the inventors used a cell line developed in the inventors' laboratory, and that has been culture to resist to melphalan (Mres) compare to its negative control (WT) (FIG. 30). The inventors first tested the capacity of the different inhibitors to reduce cell viability in this model. All tested kinase's inhibitors lower cell viability of the control or the melphalan resistant cell line.

In series [9] the test system is primary MM cells from patients. Briefly: Primary myeloma cell cytotoxicity (CD138 flow cytometry). The series is classed as cell-based, human. The note with it: N=5 patients, 4 days of treatment. The text has this: FIG. 16 represents graphs showing the % of CD138+ cells after treatment by AZD7762, OTSSP167 and Centrinone B in 5 different primary MM cells.
FIG. 17 represents graphs showing that the three tested inhibitors reduce % of tumor MM cells without toxicity on normal BM microenvironment cells from patients (N=5). CD138 amount was monitored by flow cytometry after 4 days of treatment.
Bone marrow of patients presenting with previously untreated MM (N=5) at the university hospital of Montpellier was obtained after patients' written informed consent in accordance with the Declaration of Helsinki and agreement of the Montpellier University Hospital Centre for Biological Resources (DC-2008-417). Primary myeloma cells of patients were cultured with or without graded concentrations of selected inhibitors and MMC cytotoxicity evaluated using anti-CD138-Phycoerythrin monoclonal antibody and CD38-Allophycocyanin (Beckman-Coulter) as described (Moreaux et al., 2012).

In series [10] the test system is AMO1 HMCL. The experiment in a line: Proteome profiler array (phospho kinases, apoptosis proteins). It is filed as cell-based, human. As to conditions: AMO1, 48 h treatment. The protocol:
Proteins accumulations were monitored after 48 h treatment on AMO1 HMCL using proteome profiler array. Relative amount was calculated as the mean of pixel density. Phospho kinases and apoptosis proteins were quantified using the dedicated proteome Profiler™ array (RD systems, Bio-techne) following the manufacturer instructions. 500 μg and 300 μg protein were used for the two arrays respectively.

Series [11] concerns XG21. Briefly: Cell Titer Glo viability, XG21 HMCL. It is filed as cell-based, human. As to conditions: Homo sapiens; XG21, CTG viability. The method, then: as §2, §3
For series [12], the system named is XG1. Briefly: Cell Titer Glo viability, XG1 HMCL. The series is classed as cell-based, human. As to conditions: Homo sapiens; XG1, CTG viability. The method, then: as §2, §3

Molecules are shown by their SMILES.

The IC20 is the point of the concentration-response curve where the effect stands at 20%. In general, IC50 refers to the midpoint of a concentration-inhibition curve. As for `NC(=O)Nc1cc(-c2cccc(F)c2)sc1C(=O)N[C@H]1CCCNC1` [AZD7762], in series [1], the cell cycle arrest entry is “arrested the cells in S phase”. Further, in series [2], the “cell viability in mouse cellular model of multiple myeloma” value is recorded as “demonstrated similar efficiency”. Moreover, in series [3], the “effect on non-tumoral cells” value is “barely affected”. For the same molecule, the IC20 in [4] is 82 nM. The IC50 is 136 nM in [4], 116 nM in series [6], 210 nM in [11] and 95 nM in [12]. Besides, the “Lenalidomide treatment on co-treatment with kinase inhibitor” value in [5] (AMO1 and OPM2) is “potentialized”. Further, the synergy with lenalidomide result in [5] (XG1, XG21, AMO1, OPM2) is “synergized with the conventional treatment”. The synergy with melphalan result in [5] (XG1, XG21, AMO1, OPM2) is “synergized with the conventional treatment”. Moreover, the “cell death via apoptosis (annexin) on co-treatment” value in [7] was “increase cell death via apoptosis”. In addition, the “melphalan resistance on co-treatment with melphalan” value in series [8] is reported as “reversed the melphalan resistance”. Moreover, the “number of tumoral cells (CD138+)” value in [9] is recorded as “reduced the number of tumoral cells”. Further, the claspin and survivin result in series [10] was “decrease in claspin and survivin”.

Values taken from US11499197B2, “Prognosis method of multiple myeloma” (CENTRE NATIONAL DE LA RECHERCHE SCIENTIFIQUE, priority 2017, dated 2022).
